Here are results for two molecules from EP1484329A1, “Indole derivatives with apoptosis inducing activity” (Zentaris GmbH, priority 2003, dated 2004).

In one data set the test system is KB/HeLa Zellen. Nature of the data set: Cell cycle analysis (G2/M arrest). It is filed as cell-based. The conditions noted are these: Homo sapiens, read-out: EC50 in nM (50% cells in G2/M). Here is the method:
Für die Zellzyklusanalyse wurden KB/HeLa Zellen mit den Testsubstanzen in unterschiedlichen Konzentrationen (0.1-1000 nM) 24 Stunden bei 37°C behandelt.
Der prozentuale Anteil der in der G2/M Phase des Zellzyklus arrettierten Zellen nach Behandlung mit Referenz- oder ausgewählten Testsubstanzen ist in der nachfolgenden Tabelle 5 dargestellt. Die Ergebnisse wurden mit einer speziellen Analysesoftware (ModFit™) ausgewertet.

In the next data set the test system is KB/HeLa. Nature of the data set: XTT proliferation assay, KB/HeLa. It is filed as cell-based. The conditions noted are these: Homo sapiens, read-out: XTT Proliferationsassay, EC50 KB/Hela. The text has this:
(§1) Die Substanzen 1,2, 4-6 wurden in einem Proliferationstest an etablierten Tumorzelllinien auf ihre anti-proliferative Aktivität hin untersucht (D.A. Scuderio et al. Cancer Res. 1988, 48, 4827-4833). Der verwendete Test bestimmt die zelluläre Dehydrogenase-Aktivität und ermöglicht eine Bestimmung der Zellvitalität und indirekt der Zellzahl. Bei den verwendeten Zelllinien handelt es sich um die humane Cervixkarzinom Zelllinie KB/HeLa (ATCC CCL17), die ovariale Adenokarzinomzelllinie SKOV-3 (ATCC HTB77), die humane Glioblastom Zelllinie SF-268 (NCI 503138) und die Lungenkarzinom Zelllinie NCI-H460 (NCI 503473). Des weiteren wurde zur Untersuchung der Zellzyklus-spezifischen Wirkung der Substanz ein RKOp27 Zellsystem verwendet (M. Schmidt et al. Oncogene19(20):2423-9, 2000). Bei RKO handelt es sich um eine humane Kolonkarzinomlinie, in der der Zellzyklusinhibitor p27 ^kip1 mittels des Ecdyson Expressionssystems induziert zur Expression gebracht und zu einem Zellzyklusarrest spezifisch in G2 geführt werden kann. Eine unspezifisch wirkende Substanz hemmt die Proliferation unabhängig davon, ob die RKO Zelle in G1 oder G2 arretiert ist oder nicht. Zellzyklus-spezifische Substanzen wie beispielsweise Tubulininhibitoren sind hingegen nur dann zytotoxisch, wenn Zellen nicht arretiert sind und der Zellzyklus durchlaufen wird. In Tabelle 1 ist die zytotoxische bzw. wachstumshemmende Aktivität der beschriebenen Verbindungen mit / ohne Expression von p27^kip1gezeigt. Die getesteten Verbindungen zeigten im induzierten Zustand von p27^kiP1 keine zytotoxische Aktivität. Die Ergebnisse zeigen eine sehr potente Hemmung der Proliferation ausgewählter Tumorzelllinien durch die genannten Substanzen.
In general terms: Formazan colour is commonly taken as a measure of viable cells.

A further data set has as its system U-937 Zelllinie. Nature of the data set: CDDplus nucleosome ELISA (apoptosis detection). It counts as cell-based. The note with it: U-937, 0.1-1000nM, 4-24h. As to the method: Zum Nachweis der Nucleosomen Partikel wurde der von der Firma Roche Molecular Biochemicals beschriebene CDD^plus Nucleosomen ELISA Test eingesetzt. Hierzu untersuchte man die Verbindung 2 an der U-937 Zelllinie bei unterschiedlichen Konzentrationen (0.1-1000nM) und bei unterschiedlicher zeitlicher Behandlung (4-24h) (s. Graph 7). [formula]
(In general: In an ELISA, binding on a coated surface is turned into a signal by an enzyme label.)

A further data set relates to NCI-H460. Nature of the data set: XTT proliferation assay, NCI-H460. The note with it: Homo sapiens, read-out: XTT Proliferationsassay, EC50 NCI-H460. It counts as cell-based.
Excerpt: as §1

Another data set concerns LT12mdr. Nature of the data set: XTT proliferation assay, LT12mdr (resistant). It counts as cell-based. The note with it: read-out: XTT Proliferationsassay, EC50 LT12mdr.
Excerpt: as §1, with “Substanzen. Tabelle 1:” for “Substanzen.”
Zur weiteren Charakterisierung wurden die Substanzen 1,2,4-6 gegenüber multi drug resistenten Zelllinien im Vergleich zu den nicht-resistenten Wildtypzelllinien untersucht.
Bei den untersuchten Zelllinien handelt es sich um die murine L1210, die akute myeloische Leukaemie Zelllinie LT12 und um die resistenten Linien L1210/mdr und LT12/mdr. Außerdem wurden die murine P388 Zelllinie (methyl-cholanthreneinduced lymphoid neoplasm) sowie die Doxorubicin-resistente P388 als Testsysteme herangezogen.

The subject of data set [1] is humanen Xenograft-Modellen. Nature of the data set: In vivo activity in xenograft models. Set-up: species or system human. The conditions noted are these: Hautkrebs, Nierenzellkarzinom und Brustkrebs. The source says: Die in vivo Aktivität der Verbindung 2 wurde an verschiedenen humanen Xenograft-Modellen überprüft.
Data set [2] is classed as in vivo, Mäuse (CD-1 Mausstamm). The conditions noted are these: for Effekte 7 Tage nach Gabe / Effekte 1 h nach Gabe / Effekte 2 h nach Gabe / Effekte 24 h nach Gabe / Temp. (rektal): single dose; for Temp. (rektal): measured 1 hour after application. As to the method:
Zur Beurteilung und Abschätzung möglicher Nebenwirkungen (neurodegenerative, phsychotrope Effekte etc.) bzw. toxischer Effekte ausgehend von der Verbindung 2 wurden Mäuse (CD-1 Mausstamm) in einem modifizierten Irwin-Grid Modell bei einmaliger Gabe (5, 10 und 20 mg/kg; p.o.) über eine Zeitdauer von 7 Tagen beobachtet (S. Irwin et al. Psychopharmacologia 1968, 13, 222-257). Die Ergebnisse hierzu werden in nachfolgender Tabelle 7 gezeigt: Tabelle 7: […]

In another data set the test system is SKOV-3. Nature of the data set: XTT proliferation assay, SKOV-3. It counts as cell-based. The note with it: Homo sapiens, SK-OV-3; read-out: XTT Proliferationsassay, EC50 SKOV3.
Excerpt: as §1

SMILES strings stand for the structures. Converted amounts (≈) assume the structure as drawn. Read-outs that look alike come from different tables or passages of the source.

Regarding `O=C(Nc1ccc2ncccc2c1)C(=O)c1cn(Cc2ccc(Cl)cc2)c2ccccc12` [Verbindung 2, 2-[1-(4-Chlor-benzyl)-1 H-indol-3-yl]-2-oxo-N-chinolin-6-yl-acetamid], the EC50 in the data set with KB/HeLa Zellen (HeLa, 24 h) was found to be 52.3 nM; in the data set with KB/HeLa, 0.027 mg/L (≈ 0.0614 µM); with NCI-H460, 0.054 mg/L (≈ 0.123 µM); in the data set with LT12mdr, 0.063 mg/L (≈ 0.143 µM); with SKOV-3 it was 0.018 mg/L (≈ 0.0409 µM). In the data set with U-937 Zelllinie (cell lysate), the “Nucleosomen im Zelllysat” value is recorded as “konzentrations- und zeitabhängiger Anstieg von Nucleosomen im Zelllysat”. For the same molecule, the “Nucleosomen im Zellkulturüberstand” value in the data set on U-937 Zelllinie (culture supernatant) is recorded as “kein signifikanter Anstieg”. In addition, the “Tumorwachstum in Xenograft-Modellen” value in data set [1] is “das Tumorwachstum in verschiedenen Xenograft-Modellen hemmt”. In addition, the “Effekte 7 Tage nach Gabe” value in data set [2] (5 mg/kg p.o.), in data set [2] (10 mg/kg p.o.) and in data set [2] (20 mg/kg p.o.) was “Kein Effekt” each time. In addition, the “Effekte 1 h nach Gabe” value in data set [2] (5 mg/kg p.o.) is listed as “Kein Effekt”; in data set [2] (10 mg/kg p.o.), 1/6 Aufregung 1/6 Hyperreaktivität 1/6 Reizbarkeit 2/6 Berührungsrea ktivität 1/6 Stimmfähigkeit; in data set [2] (20 mg/kg p.o.), “Kein Effekt”. For the same molecule, the “Effekte 2 h nach Gabe” value is listed as “Kein Effekt” in data set [2] (5 mg/kg p.o.), 2/6 Schwanzhypert onie 1/6 Hyperreaktivität 1/6 Reizbarkeit 1/6 Berührungsrea ktivität 1/6 Stimmfähigkeit in data set [2] (10 mg/kg p.o.) and “Kein Effekt” in data set [2] (20 mg/kg p.o.). For the same molecule, the “Effekte 24 h nach Gabe” value in data set [2] (5 mg/kg p.o.) was 2/6 Durchfall; in data set [2] (10 mg/kg p.o.), “Kein Effekt”; in data set [2] (20 mg/kg p.o.) it was 1/6 Durchfall. Further, the “Temp. (rektal)” value turned out to be 37.5 ± 0.2 in data set [2] (5 mg/kg p.o.), 37.1 ± 0.1 in data set [2] (10 mg/kg p.o.) and 37.4 ± 0.1 in data set [2] (20 mg/kg p.o.). Besides, the “toxische Effekte im modifizierten Irwin-Grid Test” value in data set [2] (single dose 5, 10 and 20mg/kg, overall conclusion) is listed as “keine toxischen Effekte”.
Take `O=C(Nc1cnc2nccnc2c1)C(=O)c1cn(Cc2ccc(Cl)cc2)c2ccccc12` [Verbindung 5, 2-[1-(4-Chlor-benzyl)-1H-indol-3-yl]-2-oxo-N-pyrido[2,3-b]pyrazin-7-yl-acetamid]: the EC50 in the data set on KB/HeLa Zellen (KB/HeLa, 24 h at 37°C, 0.1-1000 nM) is 31.9 nM; with KB/HeLa it was 0.045 mg/L (≈ 0.102 µM); in the data set with NCI-H460, 0.046 mg/L (≈ 0.104 µM); in the data set on LT12mdr, 0.017 mg/L (≈ 0.0385 µM); in the data set with SKOV-3, 0.029 mg/L (≈ 0.0656 µM).
